Data published in ChEMBL document CHEMBL3044645, “Synthesis and Pesticidal Activities of N-Phosphinoyl Heterocycles” (J Pestic Sci, 1997).

Tests used:
Myzus persicae [1] = test: Aphicidal activity against Myzus persicae (green peach aphid) in cabbage leaf at <50 ppm after 2 days; format: functional
Tetranychus urticae [2] = test: Acaricidal activity against Tetranychus urticae (two-spotted spider mite) in French bean leaf at <50 ppm after 2 days; format: functional
[3] = Acute toxicity in Mus musculus (mouse); format: organism-based; conditions: in vivo
Meloidogyne incognita [4] = test: Nematicidal activity against Meloidogyne incognita (root-knot nematode) at 1 kg/ha after 3 weeks; format: functional
[5] = Dissociation constant, pKa of the compound by titration method; format: physicochemical
Meloidogyne incognita [6] = test: Nematicidal activity against Meloidogyne incognita (root-knot nematode) at 4 to 8 kg/ha after 3 weeks; format: functional
Tetranychus urticae [7] = test: Acaricidal activity against Tetranychus urticae (two-spotted spider mite) in French bean leaf at 200 to 800 ppm after 2 days; format: functional
Myzus persicae [8] = test: Aphicidal activity against Myzus persicae (green peach aphid) in cabbage leaf at 200 to 800 ppm after 2 days; format: functional
Myzus persicae [9] = test: Aphicidal activity against Myzus persicae (green peach aphid) in cabbage leaf at 50 to 200 ppm after 2 days; format: functional
Tetranychus urticae [10] = test: Acaricidal activity against Tetranychus urticae (two-spotted spider mite) in French bean leaf at 50 to 200 ppm after 2 days; format: functional
Meloidogyne incognita [11] = test: Nematicidal activity against Meloidogyne incognita (root-knot nematode) at 8 kg/ha after 3 weeks; format: functional
Tetranychus urticae [12] = test: Acaricidal activity against Tetranychus urticae (two-spotted spider mite) in French bean leaf at 800 ppm after 2 days; format: functional
Myzus persicae [13] = test: Aphicidal activity against Myzus persicae (green peach aphid) in cabbage leaf at 800 ppm after 2 days; format: functional
Meloidogyne incognita [14] = test: Nematicidal activity against Meloidogyne incognita (root-knot nematode) at 1 to 4 kg/ha after 3 weeks; format: functional
Myzus persicae [15] = test: Insecticidal activity against Myzus persicae (green peach aphid); format: functional
Musca domestica = test: Insecticidal activity against adult Musca domestica (house fly) assessed per adult; format: functional
Tetranychus urticae [16] = test: Insecticidal activity against Tetranychus urticae (two-spotted spider mite); format: functional
Meloidogyne incognita [17] = test: Insecticidal activity against Meloidogyne incognita (root-knot nematode); format: functional, organism-based
Acetylcholinesterase = Acetylcholinesterase (Musca domestica, UniProt Q7YWJ9); test: Inhibition of Musca domestica (house fly) head AchE; conditions: read-out: I50
Acetylcholinesterase, sequence (Q7YWJ9 whole entry): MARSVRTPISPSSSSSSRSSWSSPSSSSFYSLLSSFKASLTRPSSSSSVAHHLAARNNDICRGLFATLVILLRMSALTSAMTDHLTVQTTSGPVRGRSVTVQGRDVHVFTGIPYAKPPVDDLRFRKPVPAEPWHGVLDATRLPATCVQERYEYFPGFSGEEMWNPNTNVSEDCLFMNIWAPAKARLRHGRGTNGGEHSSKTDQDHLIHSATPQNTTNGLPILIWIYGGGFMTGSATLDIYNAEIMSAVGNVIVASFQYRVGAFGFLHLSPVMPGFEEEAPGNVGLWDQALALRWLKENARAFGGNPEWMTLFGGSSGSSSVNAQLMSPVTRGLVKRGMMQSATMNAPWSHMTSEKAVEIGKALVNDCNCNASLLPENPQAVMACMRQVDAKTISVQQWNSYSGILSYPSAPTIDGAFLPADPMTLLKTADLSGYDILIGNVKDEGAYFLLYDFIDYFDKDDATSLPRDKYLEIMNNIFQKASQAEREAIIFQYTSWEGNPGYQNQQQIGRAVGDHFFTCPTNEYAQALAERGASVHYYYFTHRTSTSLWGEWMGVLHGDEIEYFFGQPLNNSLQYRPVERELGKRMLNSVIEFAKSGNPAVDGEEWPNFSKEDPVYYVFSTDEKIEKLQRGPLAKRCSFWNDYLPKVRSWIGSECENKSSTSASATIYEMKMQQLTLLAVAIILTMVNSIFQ

Question: What does the source list for CCOP(=O)(SC(C)CC)N1CCOC1=O (stereo not given)?
Answer: Activity (Myzus persicae [1]): >90%; Activity (Tetranychus urticae [2]): >90%; LD50 [3]: < 30 mg/kg; Activity (Meloidogyne incognita [4]): 0%; pKa [5]: 11.8

Question: Which Activity (Meloidogyne incognita [6]) does the source give for CCOP(=O)(SC(C)CC)N1CCCOC1=O (stereo not given) here?
Answer: 0%

Question: And the Activity (Tetranychus urticae [7])?
Answer: >90%

Question: What about the Activity (Myzus persicae [8]) of the same compound?
Answer: >90%

Question: With CCOP(=O)(SC(C)CC)N1CCCC1=O (stereo not given) as the compound, how does the Activity (Myzus persicae [9]) read?
Answer: >90%

Question: What about the Activity (Tetranychus urticae [7]) of the same compound?
Answer: >90%

Question: What about the Activity (Meloidogyne incognita [4]) of the same compound?
Answer: 0%

Question: Which Activity (Tetranychus urticae [10]) does the source give for CCOP(=O)(SC(C)CC)N1CCSC1=S (stereo not given) here?
Answer: >90%

Question: What about the Activity (Meloidogyne incognita [11]) of the same compound?
Answer: >25%

Question: And the Activity (Myzus persicae [8])?
Answer: >90%

Question: Which Activity (Tetranychus urticae [12]) does the source give for CCOP(=O)(SC(C)CC)N1CCSC1=C(C#N)C#N (stereo not given) here?
Answer: <90%

Question: What about the Activity (Meloidogyne incognita [11]) of the same compound?
Answer: >25%

Question: And the Activity (Myzus persicae [8])?
Answer: >90%

Question: For CCOP(=O)(SC(C)CC)N1OCCC1=O (stereo not given), which Activity (Tetranychus urticae [7]) is on record?
Answer: >90%

Question: And the Activity (Meloidogyne incognita [11])?
Answer: >25%

Question: And the Activity (Myzus persicae [8])?
Answer: >90%

Question: What about the pKa [5] of the same compound?
Answer: 10.5

Question: What does the source list for CCOP(=O)(SC(C)CC)n1ccoc1=O (stereo not given)?
Answer: Activity (Myzus persicae [13]): <90%; Activity (Tetranychus urticae [12]): <90%; Activity (Meloidogyne incognita [11]): >25%

Question: With CCOP(=O)(SC(C)CC)N1C(=O)CCC1=O (stereo not given) as the compound, how does the Activity (Myzus persicae [13]) read?
Answer: <90%

Question: And the Activity (Tetranychus urticae [12])?
Answer: <90%

Question: And the Activity (Meloidogyne incognita [11])?
Answer: >25%

Question: And the pKa [5]?
Answer: 9.6

Question: Which Activity (Myzus persicae [13]) does the source give for CCOP(=O)(SC(C)CC)N1CC(=O)SC1=O (stereo not given) here?
Answer: <90%

Question: What about the Activity (Tetranychus urticae [12]) of the same compound?
Answer: <90%

Question: And the Activity (Meloidogyne incognita [11])?
Answer: >25%

Question: With CCOP(=O)(SC(C)CC)N1C(=O)OCC1C (stereo not given) as the compound, how does the Activity (Myzus persicae [1]) read?
Answer: >90%

Question: And the Activity (Tetranychus urticae [2])?
Answer: >90%

Question: What about the Activity (Meloidogyne incognita [4]) of the same compound?
Answer: 0%

Question: Which Activity (Myzus persicae [1]) does the source give for CCOP(=O)(SC(C)CC)N1C(=O)OCC1CC (stereo not given) here?
Answer: >90%

Question: What about the Activity (Tetranychus urticae [2]) of the same compound?
Answer: >90%

Question: What about the Activity (Meloidogyne incognita [4]) of the same compound?
Answer: 0%

Question: With CCCCC1COC(=O)N1P(=O)(OCC)SC(C)CC (stereo not given) as the compound, how does the Activity (Myzus persicae [13]) read?
Answer: <90%

Question: What about the Activity (Meloidogyne incognita [14]) of the same compound?
Answer: 0%

Question: And the Activity (Tetranychus urticae [7])?
Answer: >90%

Question: What does the source list for CCOP(=O)(SC(C)CC)N1C(=O)OCC1OC (stereo not given)?
Answer: Activity (Myzus persicae [9]): >90%; Activity (Tetranychus urticae [10]): >90%; Activity (Meloidogyne incognita [4]): 0%

Question: With CCOP(=O)(SC(C)CC)N1C(=O)OCC1C(=O)OC (stereo not given) as the compound, how does the Activity (Myzus persicae [13]) read?
Answer: <90%

Question: And the Activity (Tetranychus urticae [7])?
Answer: >90%

Question: What about the Activity (Meloidogyne incognita [11]) of the same compound?
Answer: >25%

Question: Which results are given for CCOP(=O)(SC(C)CC)N1CC(C)OC1=O (stereo not given)?
Answer: Activity (Myzus persicae [1]): >90%; Activity (Tetranychus urticae [2]): >90%; Activity (Meloidogyne incognita [4]): 0%

Question: With CCOP(=O)(SC(C)CC)N1CC(C(C)(C)C)OC1=O (stereo not given) as the compound, how does the Activity (Meloidogyne incognita [6]) read?
Answer: 0%

Question: And the Activity (Tetranychus urticae [10])?
Answer: >90%

Question: And the Activity (Myzus persicae [8])?
Answer: >90%

Question: Which Activity (Meloidogyne incognita [6]) does the source give for CCOP(=O)(SC(C)CC)N1CC(S(C)(=O)=O)OC1=O (stereo not given) here?
Answer: 0%

Question: And the Activity (Tetranychus urticae [7])?
Answer: >90%

Question: What about the Activity (Myzus persicae [8]) of the same compound?
Answer: >90%

Question: Which Activity (Meloidogyne incognita [6]) does the source give for CCOP(=O)(SC(C)CC)N1CC(C#N)OC1=O (stereo not given) here?
Answer: 0%

Question: And the Activity (Myzus persicae [13])?
Answer: <90%

Question: What about the Activity (Tetranychus urticae [7]) of the same compound?
Answer: >90%

Question: Which Activity (Tetranychus urticae [2]) does the source give for CCOP(=O)(SC(C)CC)N1C(=O)OC(C)C1C (stereo not given) here?
Answer: >90%

Question: What about the Activity (Meloidogyne incognita [4]) of the same compound?
Answer: 0%

Question: Which results are given for CCOP(=O)(OCC)N1CCOC1=O?
Answer: Activity (Myzus persicae [13]): <90%; Activity (Tetranychus urticae [12]): <90%; Activity (Meloidogyne incognita [11]): >25%

Question: With CCCSP(=O)(SC)N1CCOC1=O (stereo not given) as the compound, how does the Activity (Myzus persicae [13]) read?
Answer: <90%

Question: And the Activity (Tetranychus urticae [12])?
Answer: <90%

Question: And the Activity (Meloidogyne incognita [11])?
Answer: >25%

Question: Which Activity (Tetranychus urticae [7]) does the source give for CCCSP(=O)(NC)N1CCOC1=O (stereo not given) here?
Answer: >90%

Question: And the Activity (Meloidogyne incognita [11])?
Answer: >25%

Question: And the Activity (Myzus persicae [8])?
Answer: >90%

Question: For CCOP(=O)(SCC(C)C)N1CCOC1=O (stereo not given), which Activity (Myzus persicae [1]) is on record?
Answer: >90%

Question: What about the Activity (Tetranychus urticae [2]) of the same compound?
Answer: >90%

Question: And the Activity (Meloidogyne incognita [14])?
Answer: 0%

Question: For CCOP(=O)(SC(C)C)N1CCOC1=O (stereo not given), which Activity (Meloidogyne incognita [6]) is on record?
Answer: 0%

Question: What about the Activity (Tetranychus urticae [7]) of the same compound?
Answer: >90%

Question: And the Activity (Myzus persicae [8])?
Answer: >90%

Question: Which Activity (Meloidogyne incognita [6]) does the source give for CCC(C)SP(=O)(OCCF)N1CCOC1=O (stereo not given) here?
Answer: 0%

Question: What about the Activity (Tetranychus urticae [12]) of the same compound?
Answer: <90%

Question: What about the Activity (Myzus persicae [8]) of the same compound?
Answer: >90%

Question: Which results are given for CCCOP(=O)(SC(C)CC)N1CCOC1=O (stereo not given)?
Answer: Activity (Meloidogyne incognita [6]): 0%; Activity (Tetranychus urticae [7]): >90%; Activity (Myzus persicae [8]): >90%

Question: What does the source list for CCC(C)SP(=O)(OC)N1CCOC1=O (stereo not given)?
Answer: Activity (Tetranychus urticae [7]): >90%; Activity (Meloidogyne incognita [11]): >25%; Activity (Myzus persicae [8]): >90%

Question: With CCOP(=S)(SC(C)CC)N1CCOC1=O (stereo not given) as the compound, how does the Activity (Tetranychus urticae [7]) read?
Answer: >90%

Question: And the Activity (Meloidogyne incognita [11])?
Answer: >25%

Question: And the Activity (Myzus persicae [8])?
Answer: >90%

Question: What does the source list for CCOP(=O)(SC(C)CC)N1CCSC1=O (racemic) [FOSTHIAZATE]?
Answer: LC50 (Myzus persicae [15]): >4.06 ppm; Activity (Musca domestica): 18 µg; LC50 (Tetranychus urticae [16]): >22.4 ppm; EC50 (Meloidogyne incognita [17]): 29.6 ppm

Question: With CCOP(=O)(SC(C)CC)N1CCSC1=O (single isomer, unassigned; (+)) [FOSTHIAZATE] as the compound, how does the LC50 (Myzus persicae [15]) read?
Answer: >53.7 ppm

Question: What about the Activity (Musca domestica) of the same compound?
Answer: 1.945 µg

Question: What about the LC50 (Tetranychus urticae [16]) of the same compound?
Answer: >800 ppm

Question: And the EC50 (Meloidogyne incognita [17])?
Answer: 2.339 ppm

Question: For CCOP(=O)(SC(C)CC)N1CCSC1=O (stereo in doubt; (-)-8) [FOSTHIAZATE], which LC50 (Myzus persicae [15]) is on record?
Answer: >13.2 ppm

Question: And the Activity (Musca domestica)?
Answer: 0.108 µg

Question: And the LC50 (Tetranychus urticae [16])?
Answer: 35.7 ppm

Question: And the EC50 (Meloidogyne incognita [17])?
Answer: 0.079 ppm

Question: And the IC50 (Acetylcholinesterase)?
Answer: > 1000 µM

Question: What does the source list for CCOP(=O)(SC(C)CC)N1CCSC1=O (stereo not given) [FOSTHIAZATE]?
Answer: Activity (Myzus persicae [1]): >90%; Activity (Tetranychus urticae [2]): >90%; LD50 [3]: 127 mg/kg; Activity (Meloidogyne incognita [4]): 0%; pKa [5]: 11.6
